Tests used:
[1] = xn = mol fraction of the nth substance listed

COCCOC [1,2-dimethoxyethane]
Settings	surface tension liquid-gas [mN/m]
298.15 K	23.79
308.15 K	22.91
318.15 K	21.89

COCCOC [1,2-dimethoxyethane] + O
surface tension liquid-gas [mN/m], [1]
Settings	x1 = 0.047	x1 = 0.066	x1 = 0.0759	x1 = 0.1286	x1 = 0.1942	x1 = 0.2612	x1 = 0.4132	x1 = 0.6313	x1 = 1
298.15 K	48.35	42.42	40.62	31.96	28.55	27.81	26.08	25.41	23.79
308.15 K	46.83	40.97	39.26	30.69	27.43	26.81	25.12	24.49	22.91
318.15 K	46.47	40.62	37.71	29.26	26.53	25.92	24.78	23.6	21.89

COCCOCCO [2-(2-methoxyethoxy)ethanol]
Settings	surface tension liquid-gas [mN/m]
298.15 K	34.73
308.15 K	33.91
318.15 K	32.95

COCCOCCO [2-(2-methoxyethoxy)ethanol] + O
surface tension liquid-gas [mN/m], [1]
Settings	298.15 K	308.15 K	318.15 K
x1 = 0.0374	58.57	57.12	55.97
x1 = 0.0558	55.28	53.9	52.21
x1 = 0.1191	45.14	43.86	43.13
x1 = 0.1951	41.05	39.78	38.96
x1 = 0.3021	40.02	38.8	38.55
x1 = 0.4427	38.27	37.12	36.31
x1 = 0.491	37.57	36.46	35.26
x1 = 0.5502	36.87	35.92	34.53
x1 = 0.7494	35.37	34.49	33.45
x1 = 0.8564	35.02	34.18	33.12
x1 = 1	34.73	33.91	32.95

COCCOCCOCCO [2-[2-(2-methoxyethoxy)ethoxy]ethanol]
Settings	surface tension liquid-gas [mN/m]
298.15 K	36.28
308.15 K	35.79
318.15 K	35.21

COCCOCCOCCO [2-[2-(2-methoxyethoxy)ethoxy]ethanol] + O
surface tension liquid-gas [mN/m], [1]
Settings	x1 = 0.0564	x1 = 0.0964	x1 = 0.1673	x1 = 0.3525	x1 = 0.474	x1 = 0.5536	x1 = 0.6606	x1 = 0.7512	x1 = 0.8736	x1 = 1
298.15 K	54.62	47.43	41.73	40.45	39.1	37.76	37.13	36.91	36.69	36.28
308.15 K	53.11	45.98	40.46	39.45	38.29	37.04	36.49	36.35	36.18	35.79
318.15 K	51.53	44.95	39.01	38.12	37.42	36.12	35.85	35.46	35.29	35.21

COCCO [2-methoxyethan-1-ol]
Settings	surface tension liquid-gas [mN/m]
298.15 K	30.82
308.15 K	30.02
318.15 K	29.1

COCCO [2-methoxyethan-1-ol] + O
surface tension liquid-gas [mN/m], [1]
Settings	298.15 K	308.15 K	318.15 K
x1 = 0.0509	56.33	55.17	53.9
x1 = 0.0559	55.11	54.04	52.82
x1 = 0.1052	46.86	45.88	44.8
x1 = 0.1494	43.31	42.37	41.35
x1 = 0.2215	39.7	38.81	37.83
x1 = 0.3373	36.75	35.89	34.92
x1 = 0.4783	35.02	34.18	33.22
x1 = 0.6258	32.91	32.02	31.13
x1 = 0.7814	31.78	30.96	30.02
x1 = 0.8912	31.02	30.21	29.28
x1 = 1	30.82	30.02	29.1

O [water]
Settings	surface tension liquid-gas [mN/m]
298.15 K	71.99
308.15 K	70.38
318.15 K	68.82

O [water] + COCCO
[1], x2 = 0
Settings	surface tension liquid-gas [mN/m]
298.15 K	71.99
308.15 K	70.38
318.15 K	68.82

O [water] + COCCOC
[1], x2 = 0
Settings	surface tension liquid-gas [mN/m]
298.15 K	71.99
308.15 K	70.38
318.15 K	68.82

O [water] + COCCOCCO
[1], x2 = 0
Settings	surface tension liquid-gas [mN/m]
298.15 K	71.99
308.15 K	70.38
318.15 K	68.82

O [water] + COCCOCCOCCO
[1], x2 = 0
Settings	surface tension liquid-gas [mN/m]
298.15 K	71.99
308.15 K	70.38
318.15 K	68.82

— the NIST ThermoML archive (doi:10.1021/je030173e)
